According to the NIST ThermoML archive (doi:10.1016/j.fluid.2005.04.003):
Numbers after ± are expanded uncertainties.

Tests used:
[1] = Liquid; for mass density: 298.15 K, 101.33 kPa
[2] = refractive index (Na D-line) (dimensionless); conditions: 298.15 K; 101.33 kPa; Liquid; Standard Abbe refractometry

Row | SMILES | mass density [1] [kg/m3] | Normal boiling temperature [1] [°C] | refractive index [2]
1 | CCO [ethanol] | 785.22 ± 0.64 | 78.29 ± 0.08 | 1.3592 ± 0.00073
2 | CO [methanol] | 786.63 ± 0.63 | 64.4 ± 0.08 | 1.3264 ± 0.0007
3 | CCOC(C)(C)CC [1,1-dimethylpropyl ethyl ether] | 760.57 ± 0.66 | 101.42 ± 0.08 | 1.38857 ± 0.00072
